Test results from ChEMBL document CHEMBL1150983, “Synthesis of novel taxol analogs and evaluation of their biological activities” (1997).

Tested on: J774.2
Test: Cytotoxicity tested against J774.2 cells.
Format: functional
Conditions: Mus musculus, read-out: ED50 (the source's name)

**Q.** With `CC(=O)O[C@@]12CO[C@@H]1C[C@@H](O)[C@@]1(C)C(=O)c3[se]cc4c3[C@@](C(C)(C)O)(C[C@@H]4OC(=O)[C@H](O)[C@@H](NC(=O)c3ccccc3)c3ccccc3)[C@@H](OC(=O)c3ccccc3)[C@H]21` as the molecule, how does the EC50 read?
**A.** Its EC50 is 0.9 µM.

**Q.** For `CC(=O)O[C@H]1C(=O)[C@@]2(C)[C@H]([C@H](OC(=O)c3ccccc3)[C@]3(O)C[C@H](OC(=O)[C@H](O)[C@@H](NC(=O)c4ccccc4)c4ccccc4)C(C)=C1C3(C)C)[C@]1(OC(C)=O)CO[C@@H]1[C@@H]2O`, which EC50 is on record?
**A.** The EC50 was 0.25 µM.

**Q.** `CC(=O)O[C@H]1C(=O)[C@@]2(C)[C@H]([C@H](OC(=O)c3ccccc3)[C@]3(O)C[C@H](OC(=O)[C@H](O)[C@@H](NC(=O)c4ccccc4)c4ccccc4)C(C)=C1C3(C)C)[C@]1(OC(C)=O)CO[C@@H]1C[C@@H]2O` [PACLITAXEL] was tested. Which EC50 did it give?
**A.** The EC50 was 0.016 µM.
